Literature values in publication PMC3387528 (Journal of the American Chemical Society, 2011).

What was measured:
dsDNA = details: substrate dsDNA; no coreagents; pH 7.0, 37 °C; ref [22]
[1] = test system: ApA (adenylyl(3′-5′)adenosine); details: substrate ApA; no coreagents; pH 7.2, 30 °C; ref [28]

| Compound | k2, expressed as kcat/KM (dsDNA) | k2, second-order rate constant [1] [M⁻¹ s⁻¹] |
| --- | --- | --- |
| [Eu+3] [Eu^3+] | 108 ^b M^−1 min^−1 | – |
| [Cl][Lu]([Cl])[Cl] [LuCl3] | – | 0.633 |
